# From paper PMC7037447, “Syntheses of L-Rhamnose-Linked Amino Glycerolipids and Their Cytotoxic Activities against Human Cancer Cells” (Molecules, 2020)
# Legend:
# MDA-MB-231 = assay: MTS cell viability assay, 48 h; format: cell-based, human; details: Homo sapiens; MDA-MB-231, 48 h, MTS; concentration decreasing cell viability by 50% relative to untreated control; read-out: CC50
# Procedure: […] […] This compound carries a primary amino group at the sn-3 position of the glycerolipid and L-rhamno sugar at the sn-2 position via an α-rhamnosidic linkage.
# (§1) The cell lines were cultured from frozen stocks originally obtained from ATCC (Manassas, VA, USA). MDA-MB-231, JIMT-1, DU145, MDA-MB-468, Hs578t and MDA-MB-453 were grown in DMEM medium supplemented with 10% FBS. BT-474 cells were grown in DMEM/F12 medium supplemented with 10% FBS. MiaPaCa2 was cultured in DMEM supplemented with 10% FBS and 2.5% horse serum. All the media contained penicillin/streptomycin. U-251 and U-87 in Eagle MEM supplemented by 10% FBS, 1% Non-essential amino acids, 1 mM sodium pyruvate and 2 mM glutamine. BT-549 was cultured in RPMI 1640 medium supplemented with 10% FBS.
# The effects of the GAELs on the viability of the epithelial cancer cell lines were determined as previously described. Briefly, equal numbers of the cells were dispersed into 96-well plates. […] MTS reagent [3-(4,5-dimethylthiazol-2-yl)-5-(3-carboxymethoxyphenyl)-2-(4-sulfophenyl)-2H-tetrazolium, inner salt; Promega, Madison, WI, USA] (20% v/v) was subsequently added and the plates were incubated for 1–4 h in a CO2 incubator followed by measurement of the medium at OD490 with a plate reader (Molecular Devices).
# JIMT-1 [1] = assay: MTS cell viability assay, 48 h; format: cell-based, human; details: Homo sapiens; JIMT-1, 48 h, MTS; read-out: CC50
# Procedure: The cells were incubated with increasing concentrations of the compounds (0–30 µM) for 48 h followed by assessment of cell viability using the MTS assay. […] This compound carries a primary amino group at the sn-3 position of the glycerolipid and L-rhamno sugar at the sn-2 position via an α-rhamnosidic linkage.
# as §1
# The effects of the GAELs on the viability of the epithelial cancer cell lines were determined as previously described. Briefly, equal numbers of the cells were dispersed into 96-well plates. After 24 h, the cells were incubated with the compounds (0–30 µM) for 48 h. MTS reagent [3-(4,5-dimethylthiazol-2-yl)-5-(3-carboxymethoxyphenyl)-2-(4-sulfophenyl)-2H-tetrazolium, inner salt; Promega, Madison, WI, USA] (20% v/v) was subsequently added and the plates were incubated for 1–4 h in a CO2 incubator followed by measurement of the medium at OD490 with a plate reader (Molecular Devices). Wells with media but no cells were treated in similar fashion and the values utilized as blank.
# [2] = tested on: BT549, MDA-MB-453, MDA-MB-468, and Hs578t (triple negative breast cancer lines); assay: MTS cell viability assay, 48 h, triple negative breast cancer lines; format: cell-based, human; details: with the exception of MDA-MB-453
# Procedure: Concentrations of compound 3 between 6–15 µM were sufficient to kill all the triple negative cell lines with the exception of MDA-MB-453 where viability was inhibited by 60% at the highest concentration tested. 30 µM of 3 was required for complete loss of viability of the hormone sensitive breast cancer BT474 cell line.
# as §1
# The effects of the GAELs on the viability of the epithelial cancer cell lines were determined as previously described. Briefly, equal numbers of the cells were dispersed into 96-well plates. After 24 h, the cells were incubated with the compounds (0–30 µM) for 48 h. […] (20% v/v) was subsequently added and the plates were incubated for 1–4 h in a CO2 incubator followed by measurement of the medium at OD490 with a plate reader (Molecular Devices). […]
# DU-145 = details: DU-145, absence or presence of 40 µM QVD, 48 h
# Procedure: (§2) One of the hallmark features of cytotoxic GAELs is their ability to kill cancer cells via an apoptosis-independent mechanism. We evaluated whether the mechanism of action of 3 was similar to other GAELs.
# (§3) Equal numbers of JIMT-1, or DU145 cells were dispersed into 96-well plates, and after 4 h the cells were treated with pan-caspase inhibitor QVD-OPh (40 µM). After 20 h, the cells were incubated with the varying concentration of the compounds ([…]) for 48 h. At the end of the incubation, the MTS assay was used to assess cell viability as described above.
# (§4) DU-145 or JIMT-1 cell lines were treated with increasing concentrations of 3 or Adriamycin in the presence or absence of 40 µM QVD. Four hours after plating, cells were treated with QVD. After 20 h, the cells were incubated with 0–15 µM 3 or 0–4 µM Adriamycin for 48 h. Cell viability relative to vehicle control was measured by MTS assay.
# JIMT-1 [3] = details: JIMT-1, absence or presence of 40 µM QVD, 48 h
# Procedure: as §2, §3, §4
compound,measurement,setting,value
"CCCCCCCCCCCCCCCCOCC(CN)OC1OC(C)C(O)C(O)C1O [Compound 3, 3-Amino-1-O-hexadecyloxy-2R-(O–α-L-rhamnopyranosyl)-sn-glycerol]",CC50,MDA-MB-231,4.8 µM
same,CC50,JIMT-1 [1],5.5 µM
same,Concentrations sufficient to kill all the triple negative cell lines,[2],6 to 15 µM
same,Effect of QVD on cytotoxicity,DU-145,no statistically significant differences
same,Effect of QVD on cytotoxicity,JIMT-1 [3],no statistically significant differences
